# Experimental data taken from article PMC6450621, “Changes of drug pharmacokinetics mediated by downregulation of kidney organic cation transporters Mate1 and Oct2 in a rat model of hyperuricemia” (PLoS ONE, 2019).
# Where “and” joins values, the source holds several entries; their conditions need not be identical. Identical values can stand only once.
# Columns and labels:
# [1] = in vivo; details: rat, plasma, intravenous
# Procedure: (§1) Rats were anesthetized with pentobarbital, and the bladder was cannulated with polyethylene tubing (inside diameter 0.5 mm, outside diameter 0.8 mm). […] Blood was drawn through the jugular vein, and plasma was obtained by centrifugation at 3,000 rpm for 10 min at 4°C. Urine was collected at the designated times. […] All samples were stored at -80°C until measurement.
# (§2) If necessary, plasma and urine were diluted 10- to 100-fold and 10- to 10000-fold with saline, respectively, for high-performance liquid chromatography (HPLC) or liquid chromatography/tandem mass spectrometry (LC-MS/MS) measurement. […] Prepared samples were mixed for 1 min and centrifuged at 15,000 rpm for 5 min at 4°C. The resultant supernatant was used for LC-MS/MS analysis. The LC-MS/MS system consisted of a triple-quadrupole mass spectrometer (API 3200^TM, SCIEX, Foster City, CA) coupled with an ultrafast liquid chromatography system (LC-20AD, Shimadzu, Kyoto, Japan). […] For metformin, the mobile phase consisted of 0.1% formic acid and acetonitrile (30 : 70), and the flow rate was 0.4 mL/min.
# (§3) The plasma concentration-time data were analyzed by non-compartmental analysis. The area under the plasma concentration-time curve (AUC0-4) was obtained by application of the trapezoidal rule from time 0 to 4 h. AUC from 0 to infinity (AUCinf) was estimated by extrapolation to infinity.
# [2] = metformin; used for control and hyperuricemic rats; cited from earlier work
# [3] = Pharmacokinetic study after intravenous administration in control and hyperuricemic rats (plasma, urine, kidney); details: for Kp, kidney: 4 h after iv metformin 30 mg/kg; for CL renal / concentration at 0 min / concentration at 0.5 min / concentration at 2 min / concentration at 5 min / concentration at 30 min / concentration at 60 min / AUC(0-t) / AUC(0-inf) / dose excreted at 10 min / dose excreted at 20 min / dose excreted at 30 min / dose excreted at 60 min / dose excreted at 120 min / dose excreted at 240 min / dose excreted: rat; for CL renal: plasma and urine, CLR; for CL renal / AUC(0-t) / AUC(0-inf): iv; for concentration at 0 min / concentration at 0.5 min / concentration at 2 min / concentration at 5 min / concentration at 30 min / concentration at 60 min / AUC(0-t) / AUC(0-inf): plasma; for concentration at 0 min / concentration at 0.5 min / concentration at 2 min / concentration at 5 min / concentration at 30 min / concentration at 60 min / dose excreted at 10 min / dose excreted at 20 min / dose excreted at 30 min / dose excreted at 60 min / dose excreted at 120 min / dose excreted at 240 min / dose excreted: intravenous; for concentration at 0 min / concentration at 0.5 min / concentration at 2 min / concentration at 5 min / concentration at 30 min / concentration at 60 min: Plasma concentration; for AUC(0-inf): AUCinf; for dose excreted at 10 min / dose excreted at 20 min / dose excreted at 30 min / dose excreted at 60 min / dose excreted at 120 min / dose excreted at 240 min / dose excreted: urine; for dose excreted at 10 min / dose excreted at 20 min / dose excreted at 30 min / dose excreted at 60 min / dose excreted at 120 min / dose excreted at 240 min: Urinary recovery (cumulative); for dose excreted: Urinary Recovery;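 for all read-outs here: Pentobarbital-anesthetized rats with cannulated bladder, jugular plasma, timed urine and saline kidney homogenate assayed by HPLC or LC-MS/MS, Kp as kidney over plasma level at 4 h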
# Procedure: as §1, §2, §3
# [4] = control rats, 0 min after iv metformin 30 mg/kg or cephalexin 10 mg/kg, individual rat
# [5] = control rats, 0.5 min after iv metformin 30 mg/kg or cephalexin 10 mg/kg (creatinine endogenous), individual rat
# [6] = control rats, 2 min after iv metformin 30 mg/kg or cephalexin 10 mg/kg, individual rat
# [7] = control rats, 5 min after iv metformin 30 mg/kg or cephalexin 10 mg/kg, individual rat
# [8] = control rats, 30 min after iv metformin 30 mg/kg or cephalexin 10 mg/kg (creatinine endogenous), individual rat
# [9] = control rats, 60 min after iv metformin 30 mg/kg or cephalexin 10 mg/kg (creatinine endogenous), individual rat
# [10] = control rats, iv metformin 30 mg/kg, individual rat
# [11] = hyperuricemic rats, 0 min after iv metformin 30 mg/kg or cephalexin 10 mg/kg, individual rat
# [12] = hyperuricemic rats, 0.5 min after iv metformin 30 mg/kg or cephalexin 10 mg/kg (creatinine endogenous), individual rat
# [13] = hyperuricemic rats, 2 min after iv metformin 30 mg/kg or cephalexin 10 mg/kg, individual rat
# [14] = hyperuricemic rats, 30 min after iv metformin 30 mg/kg or cephalexin 10 mg/kg (creatinine endogenous), individual rat
# [15] = hyperuricemic rats, 60 min after iv metformin 30 mg/kg or cephalexin 10 mg/kg (creatinine endogenous), individual rat
# [16] = hyperuricemic rats, iv metformin 30 mg/kg, individual rat
# [17] = 30 mg/kg, control rats, iv metformin 30 mg/kg, individual rat
# [18] = 30 mg/kg, hyperuricemic rats, iv metformin 30 mg/kg, individual rat
# [19] = control rats, iv metformin 30 mg/kg or cephalexin 10 mg/kg, mean n=3
# [20] = hyperuricemic rats, iv metformin 30 mg/kg or cephalexin 10 mg/kg, mean n=3
smiles,measurement,setting,value
"CN(C)C(=N)N=C(N)N [Metformin, metformin]",concentration at 15 min,[1],67.3 µM
same,concentration at 120 min,[1],3.94 µM
same,fu,[2],0.85 [27]
same,Plasma concentration,[3]; [4],750 µM and 1198 µM
same,Plasma concentration,[3]; [5],571 µM and 817 µM
same,Plasma concentration,[3]; [6],293 µM and 304 µM
same,Plasma concentration,[3]; [7],154 µM and 164 µM
same,Urinary recovery (cumulative),"[3]; control rats, 20 min after iv metformin 30 mg/kg, individual rat",26.0 % of dose and 21.2 % of dose and 46.7 % of dose
same,Plasma concentration,[3]; [8],33.2 µM and 34.5 µM
same,Urinary recovery (cumulative),"[3]; control rats, 30 min after iv metformin 30 mg/kg, individual rat",43.9 % of dose and 27.9 % of dose and 51.8 % of dose
same,Plasma concentration,[3]; [9],13.0 µM and 12.8 µM
same,Urinary recovery (cumulative),"[3]; control rats, 60 min after iv metformin 30 mg/kg, individual rat",44.6 % of dose and 64.4 % of dose
same,Urinary recovery (cumulative),"[3]; control rats, 120 min after iv metformin 30 mg/kg, individual rat",63.3 % of dose and 72.5 % of dose
same,Urinary recovery (cumulative),"[3]; control rats, 240 min after iv metformin 30 mg/kg, individual rat",72.0 % of dose and 76.4 % of dose
same,"Kp, kidney","[3]; control rats, individual rat",2.8 and 35.8 and 11.4
same,AUC0-4,[3]; [10],5208 µM·min and 5490 µM·min
same,AUCinf,[3]; [10],5393 µM·min and 5550 µM·min
same,CLR,[3]; [10],23.6 mL/min/kg and 23.7 mL/min/kg
same,Plasma concentration,[3]; [11],796 µM and 923 µM
same,Plasma concentration,[3]; [12],780 µM and 862 µM
same,Plasma concentration,[3]; [13],336 µM and 407 µM
same,Plasma concentration,"[3]; hyperuricemic rats, 5 min after iv metformin 30 mg/kg or cephalexin 10 mg/kg, individual rat",86 µM and 154 µM and 193 µM
same,Urinary recovery (cumulative),"[3]; hyperuricemic rats, 10 min after iv metformin 30 mg/kg, individual rat",16.7 % of dose and 11.6 % of dose
same,Urinary recovery (cumulative),"[3]; hyperuricemic rats, 20 min after iv metformin 30 mg/kg, individual rat",26.1 % of dose and 20.0 % of dose
same,Plasma concentration,[3]; [14],54.0 µM and 44.1 µM
same,Urinary recovery (cumulative),"[3]; hyperuricemic rats, 30 min after iv metformin 30 mg/kg, individual rat",31.6 % of dose and 27.5 % of dose
same,Plasma concentration,[3]; [15],26.4 µM and 27.5 µM
same,Urinary recovery (cumulative),"[3]; hyperuricemic rats, 60 min after iv metformin 30 mg/kg, individual rat",41.1 % of dose and 37.0 % of dose
same,Urinary recovery (cumulative),"[3]; hyperuricemic rats, 120 min after iv metformin 30 mg/kg, individual rat",49.6 % of dose and 47.8 % of dose
same,Urinary recovery (cumulative),"[3]; hyperuricemic rats, 240 min after iv metformin 30 mg/kg, individual rat",63.2 % of dose and 59.1 % of dose
same,"Kp, kidney","[3]; hyperuricemic rats, individual rat",94.7 and 122.2 and 54.1
same,AUC0-4,[3]; [16],7033 µM·min and 4854 µM·min
same,AUCinf,[3]; [16],7159 µM·min and 4997 µM·min
same,CLR,[3]; [16],14.3 mL/min/kg and 23.7 mL/min/kg
same,(CLR/fu)/CLInulin Fold Change,[3]; hyperuricemic vs control rats,1.00
same,AUC0-4 Fold Change,[3]; hyperuricemic vs control rats,1.10
same,AUCinf Fold Change,[3]; hyperuricemic vs control rats,1.10
same,CLR Fold Change,[3]; hyperuricemic vs control rats,0.80
same,"Kp, kidney Fold Change",[3]; hyperuricemic vs control rats,5.44
same,Urinary Recovery Fold Change,[3]; hyperuricemic vs control rats,0.85
same,CL renal,[3]; [17],21.7 mL/min/kg
same,CL renal,[3]; [18],16.8 mL/min/kg
same,CL renal,"[3]; control rats, iv metformin 30 mg/kg or cephalexin 10 mg/kg, creatinine endogenous, mean n=3",23 mL/min/kg
same,CL renal,"[3]; hyperuricemic rats, iv metformin 30 mg/kg or cephalexin 10 mg/kg, creatinine endogenous, mean n=3",18.3 mL/min/kg
same,concentration at 0 min,[3]; [4],1270 µM
same,concentration at 0 min,"[3]; control rats, 0 min after iv metformin 30 mg/kg or cephalexin 10 mg/kg, mean n=3",1070 µM
same,concentration at 0.5 min,[3]; [5],871 µM
same,concentration at 0.5 min,"[3]; control rats, 0.5 min after iv metformin 30 mg/kg or cephalexin 10 mg/kg (creatinine endogenous), mean n=3",753 µM
same,concentration at 2 min,[3]; [6],385 µM
same,concentration at 2 min,"[3]; control rats, 2 min after iv metformin 30 mg/kg or cephalexin 10 mg/kg, mean n=3",328 µM
same,concentration at 5 min,[3]; [7],159 µM
same,concentration at 5 min,"[3]; control rats, 5 min after iv metformin 30 mg/kg or cephalexin 10 mg/kg, mean n=3",159 µM
same,concentration at 30 min,[3]; [8],37 µM
same,concentration at 30 min,"[3]; control rats, 30 min after iv metformin 30 mg/kg or cephalexin 10 mg/kg (creatinine endogenous), mean n=3",34.9 µM
same,concentration at 60 min,[3]; [9],14.4 µM
same,concentration at 60 min,"[3]; control rats, 60 min after iv metformin 30 mg/kg or cephalexin 10 mg/kg (creatinine endogenous), mean n=3",13.4 µM
same,concentration at 0 min,[3]; [11],676 µM
same,concentration at 0 min,"[3]; hyperuricemic rats, 0 min after iv metformin 30 mg/kg or cephalexin 10 mg/kg, mean n=3",798 µM
same,concentration at 0.5 min,[3]; [12],578 µM
same,concentration at 0.5 min,"[3]; hyperuricemic rats, 0.5 min after iv metformin 30 mg/kg or cephalexin 10 mg/kg (creatinine endogenous), mean n=3",740 µM
same,concentration at 2 min,[3]; [13],267 µM
same,concentration at 2 min,"[3]; hyperuricemic rats, 2 min after iv metformin 30 mg/kg or cephalexin 10 mg/kg, mean n=3",337 µM
same,concentration at 5 min,"[3]; hyperuricemic rats, 5 min after iv metformin 30 mg/kg or cephalexin 10 mg/kg, mean n=3",144 µM
same,concentration at 30 min,[3]; [14],30 µM
same,concentration at 30 min,"[3]; hyperuricemic rats, 30 min after iv metformin 30 mg/kg or cephalexin 10 mg/kg (creatinine endogenous), mean n=3",42.7 µM
same,concentration at 60 min,[3]; [15],20.6 µM
same,concentration at 60 min,"[3]; hyperuricemic rats, 60 min after iv metformin 30 mg/kg or cephalexin 10 mg/kg (creatinine endogenous), mean n=3",24.9 µM
same,AUC(0-t),"[3]; 30 mg/kg, AUC0-4, control rats, iv metformin 30 mg/kg, individual rat",98.2 µM·h
same,AUC(0-t),"[3]; 30 mg/kg, AUC0-4, hyperuricemic rats, iv metformin 30 mg/kg, individual rat",107 µM·h
same,AUC(0-inf),[3]; [17],99.5 µM·h
same,AUC(0-inf),[3]; [18],109 µM·h
same,AUC(0-t),"[3]; AUC0-4, control rats, iv metformin 30 mg/kg or cephalexin 10 mg/kg, creatinine endogenous, mean n=3",92.2 µM·h
same,AUC(0-t),"[3]; AUC0-4, hyperuricemic rats, iv metformin 30 mg/kg or cephalexin 10 mg/kg, creatinine endogenous, mean n=3",102 µM·h
same,AUC(0-inf),[3]; [19],94 µM·h
same,AUC(0-inf),[3]; [20],104 µM·h
same,dose excreted at 10 min,"[3]; 30 mg/kg, control rats, 10 min after iv metformin 30 mg/kg, mean n=3",17.8%
same,dose excreted at 20 min,"[3]; 30 mg/kg, control rats, 20 min after iv metformin 30 mg/kg, mean n=3",31.3%
same,dose excreted at 30 min,"[3]; 30 mg/kg, control rats, 30 min after iv metformin 30 mg/kg, mean n=3",41.2%
same,dose excreted at 60 min,"[3]; 30 mg/kg, control rats, 60 min after iv metformin 30 mg/kg, individual rat",57.8%
same,dose excreted at 60 min,"[3]; 30 mg/kg, control rats, 60 min after iv metformin 30 mg/kg, mean n=3",55.6%
same,dose excreted at 120 min,"[3]; 30 mg/kg, control rats, 120 min after iv metformin 30 mg/kg, individual rat",61.5%
same,dose excreted at 120 min,"[3]; 30 mg/kg, control rats, 120 min after iv metformin 30 mg/kg, mean n=3",65.7%
same,dose excreted at 240 min,"[3]; 30 mg/kg, control rats, 240 min after iv metformin 30 mg/kg, individual rat",75.1%
same,dose excreted at 10 min,"[3]; 30 mg/kg, hyperuricemic rats, 10 min after iv metformin 30 mg/kg, individual rat",15.5%
same,dose excreted at 10 min,"[3]; 30 mg/kg, hyperuricemic rats, 10 min after iv metformin 30 mg/kg, mean n=3",14.6%
same,dose excreted at 20 min,"[3]; 30 mg/kg, hyperuricemic rats, 20 min after iv metformin 30 mg/kg, individual rat",26.9%
same,dose excreted at 20 min,"[3]; 30 mg/kg, hyperuricemic rats, 20 min after iv metformin 30 mg/kg, mean n=3",24.3%
same,dose excreted at 30 min,"[3]; 30 mg/kg, hyperuricemic rats, 30 min after iv metformin 30 mg/kg, individual rat",35.7%
same,dose excreted at 30 min,"[3]; 30 mg/kg, hyperuricemic rats, 30 min after iv metformin 30 mg/kg, mean n=3",31.6%
same,dose excreted at 60 min,"[3]; 30 mg/kg, hyperuricemic rats, 60 min after iv metformin 30 mg/kg, individual rat",46%
same,dose excreted at 60 min,"[3]; 30 mg/kg, hyperuricemic rats, 60 min after iv metformin 30 mg/kg, mean n=3",41.4%
same,dose excreted at 120 min,"[3]; 30 mg/kg, hyperuricemic rats, 120 min after iv metformin 30 mg/kg, individual rat",56.1%
same,dose excreted at 120 min,"[3]; 30 mg/kg, hyperuricemic rats, 120 min after iv metformin 30 mg/kg, mean n=3",51.1%
same,dose excreted at 240 min,"[3]; 30 mg/kg, hyperuricemic rats, 240 min after iv metformin 30 mg/kg, individual rat",67.5%
same,dose excreted at 240 min,"[3]; 30 mg/kg, hyperuricemic rats, 240 min after iv metformin 30 mg/kg, mean n=3",63.3%
same,dose excreted,[3]; [19],74.5%
same,dose excreted,[3]; [20],63.3%
